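1) Cells in 96-well plates. 2) Compound, 48 h, 5 concentrations. 3) Linear interpolation between surrounding doses. 4) Unreached endpoint = highest concentration. TGI: concentration producing complete growth inhibition.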
What was measured:
Assay in all cases: NCI tumour cell line growth inhibition, 48 h
XF 498 CNS = test system: XF 498 CNS
DLD-1 colon = test system: DLD-1 colon
DMS 114 small cell lung = test system: DMS 114 small cell lung
M19-MEL melanoma = test system: M19-MEL melanoma
DMS 273 small cell lung = test system: DMS 273 small cell lung
HOP-18 NSCLC = test system: HOP-18 NSCLC
LXFL 529 NSCLC = test system: LXFL 529 NSCLC

## FC(F)(F)c1nc(-c2ccccc2)oc1Sc1nnc(Sc2oc(-c3ccccc3)nc2C(F)(F)F)s1
XF 498 CNS
  TGI: 26.7 µM
DLD-1 colon
  TGI: > 100 µM
DMS 114 small cell lung
  TGI: 21.7 µM
M19-MEL melanoma
  TGI: > 57.8 µM
DMS 273 small cell lung
  TGI: > 100 µM
HOP-18 NSCLC
  TGI: > 100 µM
LXFL 529 NSCLC
  TGI: > 64.6 µM

## CC(C)c1ccc(C(c2ccc(OCC(=O)O)cc2)c2ccc(C(C)C)cc(=O)c2O)c(O)c(=O)c1
XF 498 CNS
  TGI: 9.95 µM
DLD-1 colon
  TGI: 21.3 µM
DMS 114 small cell lung
  TGI: 8.25 µM
M19-MEL melanoma
  TGI: 69.9 µM
DMS 273 small cell lung
  TGI: 11.2 µM
HOP-18 NSCLC
  TGI: 55.6 µM
LXFL 529 NSCLC
  TGI: > 100 µM

## CCOC(=O)CCn1[nH]c(=O)c(Cl)c(Cl)c1=O
XF 498 CNS
  TGI: > 100 µM
DLD-1 colon
  TGI: > 100 µM
DMS 114 small cell lung
  TGI: > 100 µM
M19-MEL melanoma
  TGI: > 100 µM
DMS 273 small cell lung
  TGI: > 100 µM
HOP-18 NSCLC
  TGI: > 100 µM
LXFL 529 NSCLC
  TGI: > 100 µM

## COc1ccc2c3c(coc13)C(CCC(=O)O)CC2 (stereo not given)
XF 498 CNS
  TGI: > 100 µM
DLD-1 colon
  TGI: > 100 µM
DMS 114 small cell lung
  TGI: > 100 µM
M19-MEL melanoma
  TGI: > 100 µM
DMS 273 small cell lung
  TGI: > 100 µM
HOP-18 NSCLC
  TGI: > 100 µM
LXFL 529 NSCLC
  TGI: > 100 µM

## O=C(/C=C/c1c(O)ccc2ccccc12)c1ccccc1
XF 498 CNS
  TGI: > 100 µM
DLD-1 colon
  TGI: > 100 µM
DMS 114 small cell lung
  TGI: > 100 µM
M19-MEL melanoma
  TGI: > 100 µM
DMS 273 small cell lung
  TGI: > 100 µM
HOP-18 NSCLC
  TGI: > 100 µM
LXFL 529 NSCLC
  TGI: > 100 µM
